One assay concerns PC12 cells. As to the kind of experiment: PC12 cell differentiation assay (neurite outgrowth). Particulars: for EC50 / Emax: Rattus norvegicus, PC-12, PC12 cells in N2 medium, 24 hours, neurites scored; for EC50: read-out: EC50 (μM), induction of PC12 cell differentiation; for Emax: read-out: Maximal Efficacy, induction of PC12 cell differentiation. It counts as cell-based. As for the experimental part:
Four trihydroxyflavones (THF) and three dihydroxyflavones (DHF) which lack one or two, respectively, of the hydroxyl groups found in fisetin were tested for their ability to induce the differentiation of PC12 cells. Differentiation was assessed by scoring neurite outgrowth (Sagara et al., J. Neurochem., 90:1144-1155, 2004). […]
PC12 cells in N2 medium were treated with flavonoids for 24 hours at which time the cells were scored for the presence of neurites. PC12 cells produce neurites much more rapidly when treated in N2 medium than when treated in regular growth medium (Kimura et al., J. Cell Biol., 116:777-83, 1992). For each treatment, 100 cells in each of three separate fields were counted. Cells were scored positive if one or more neurites>1 cell body diameter in length were observed.

The test system of another assay is Nrf2 and HO-1. As to the kind of experiment: Nrf2 and HO-1 induction in HT22 cells (immunoblotting). The settings on record: for increasing the levels of Nrf2 and inducing HO-1 synthesis: HT22 cells, 10-25 μM, 4 hours (Nrf2), 24 hours (HO-1). It counts as cell-based, mouse. As for the experimental part: Since the ability to activate the ARE could be important for some of the beneficial effects of flavonoids such as fisetin, it was determined which, if any, of the fisetin derivatives could activate the ARE and induce the synthesis of downstream proteins such as HO-1. HT22 cells were untreated (control) or treated with 10 μM fisetin, 25 μM 3,3′DHF, 25 μM 3,4′-DHF, 10 μM 3′,4′-DHF, 10 μM 3,3′,4′-THF, 25 μM 3,7,3′-THF, 25 μM 3,7,4′-THF or 10 μM 7,3′,4′-THF for 4 hours. Nuclei were prepared and equal amounts of protein were analyzed by SDS-PAGE and immunoblotting with anti-Nrf-2 antibodies.
ERK activation is implicated in the induction of Nrf2 by certain stimuli in some cell types. To determine if ERK activation plays a role in the induction of Nrf2 and HO-1 by fisetin and its derivatives, cells were pretreated with PD98059 prior to the addition of the flavonoids to the cells. HT22 cells then were untreated (control) or treated for 24 hours with 10 μM fisetin, 25 μM 3,3′-DHF, 25 μM 3,4′-DHF, 10 μM 3′,4′-DHF, 10 μM 3,3′,4′-THF, 25 μM 3,7,3′-THF, 25 μM 3,7,4′-THF or 10 μM 7,3′,4′-THF. Cell lysates were prepared and equal amounts of cellular protein were analyzed by SDS-PAGE and immunoblotting with anti-HO-1 antibodies. Immunoblotting with anti-actin was used as a loading control.
For immunoblotting of HO-1, untreated and flavonoid-treated HT22 cells from the same density cultures as used for the cell death assays were washed twice in cold phosphate-buffered saline (PBS) then scraped into lysis buffer containing 50 mM HEPES, pH 7.4, 150 mM NaCl, 50 mM NaF, 1.5 mM MgC2, 1 mM EGTA, 10% glycerol, 1% Triton X-100, 10 mM sodium pyrophosphate, 1 mM Na3VO4, 1 mM phenylmethylsulfonyl fluoride (PMSF), 15 μg/ml aprotinin, 1 μg/ml pepstatin, and 5 μg/ml leupeptin. Lysates were incubated at 4° C. for 30 minutes, and then cleared by centrifugation at 14,000 rpm for 10 minutes. For immunoblotting of Nr12, nuclear extracts were prepared as described (Schreiber et al., Nuc. Acids Res., 17:6419, 1989) from untreated and flavonoid-treated cells. […] Protein concentrations were determined using the BCA protein assay (Pierce). Equal amounts of protein were solubilized in 2.5×SDS sample buffer, separated on 10% SDS polyacrylamide gels and transferred to nitrocellulose. The primary antibodies used were: anti-Nrf2 (#SC13032; 1/1000) from Santa Cruz Biotechnology (Santa Cruz, Calif.) and anti-HO-1 (#SPA-896; 1/5000) from Stressgen (Victoria, BC Canada).
(In general: Immunoblotting shows a protein as a band on a membrane.)

The subject of the next assay is HT22 cells. As to the kind of experiment: Protection of HT22 cells from oxidative glutamate toxicity (MTT assay). It counts as cell-based, mouse. The settings on record: for EC50 / Emax: 5 mM glutamate, MTT assay; for EC50: read-out: EC50 (μM), protection from oxidative-stress induced death; for Emax: HT-22, read-out: Maximal Efficacy, protection from oxidative-stress induced death; for effect of higher levels of BSO on protection: 5 mM glutamate + 1 mM BSO.

Setting [1] is: Mus musculus, HT-22, 24 h, HT22 cells, 24 hours.
Where [2] appears, read: Mus musculus, HT22 cells, 24 hours.

Each structure is given as a SMILES string. Entries after “also recorded” stand apart in the source; their conditions may differ. Where two headings read alike, the source gives them in different places.

Usually EC50 stands for the concentration at which the effect is half-maximal.

As for `O=c1c(O)c(-c2ccc(O)c(O)c2)oc2ccccc12` [3,3′,4′-THF, 3,3′,4′-trihydroxyflavone], the “ability to induce differentiation” value in the assay on PC12 cells (PC12 cells) is recorded as “most effective of those tested”. Besides, the 50% effective concentration (EC50) in the assay with PC12 cells is 2.5 µM; in the assay with HT22 cells (HT22 cells, 24 hours), 0.75 µM; in the assay with HT22 cells (setting [1]) it was 1 µM. Also, the Emax in the assay on PC12 cells was 80 to 90%; in the assay with HT22 cells (setting [2]), greater than 90%. For the same compound, the “differentiation of the PC12 cells” value with PC12 cells (concentration of 5 μM) is on record as greater than 80%. Moreover, the “increasing the levels of Nrf2 and inducing HO-1 synthesis” value (“increasing the levels” below) with Nrf2 and HO-1 is on record as “fairly effective”. Moreover, the “effect of low levels of BSO on protection” value in the assay on HT22 cells (5 mM glutamate + 50 μM BSO, 24 hours, MTT) is “significantly reduced protection”. The “protection from oxidative stress-induced death” value was “equal to or more effective than fisetin” in the assay on HT22 cells (HT22 cells, glutamate) and greater than 85% with HT22 cells (at 2.5 μM).

In the case of `O=c1cc(-c2ccc(O)c(O)c2)oc2ccccc12` [3′,4′-DHF, 3′,4′-dihydroxyflavone], the EC50 with PC12 cells turned out to be 10 µM; in the assay with HT22 cells (setting [1]), 0.9 µM. Further, the Emax in the assay on PC12 cells is 40 to 50%; in the assay on HT22 cells (setting [2]), greater than 90%. The “increasing the levels” value in the assay on Nrf2 and HO-1 is “weakly active”. In the assay with HT22 cells (24 hours, MTT), the “effect of higher levels of BSO on protection” value is “reduced protection”. For the same compound, the “protection from oxidative stress-induced death” value in the assay on HT22 cells (HT22 cells, glutamate) is listed as “more effective than fisetin; also recorded: equal to or more effective than fisetin”.

As to `O=c1c(O)c(-c2ccc(O)c(O)c2)oc2cc(O)ccc12` [fisetin, 3,3′,4′,7-tetrahydroxyflavone], the EC50 in the assay with PC12 cells and in the assay on HT22 cells (setting [1]) was 5 µM throughout. In addition, the Emax in the assay on PC12 cells was 70 to 80%; with HT22 cells (setting [2]) it was greater than 90%. Further, in the assay on Nrf2 and HO-1, the “increasing the levels” value is “best of the group”. In the assay on Nrf2 and HO-1 (PD98059 pretreatment), the “effect of inhibition of ERK activation (PD98059) on Nrf2 and HO-1 induction” value was “no effect”. The “effect of higher levels of BSO on protection” value in the assay with HT22 cells (24 hours, MTT) is “reduced protection”.

The values above are taken from US7897637B2, “Methods of using flavonoids to enhance memory” (The Salk Institute for Biological Studies, priority 2006, dated 2011).
